Tests used:
Assay in all cases: relative viability (nuclei count vs DMSO), 5 days (fraction); higher = more cells survive
QS11 + AZD7762 = compound: C1CC2=C(C1)C=C(C=C2)OC3=NC(=C4C(=N3)N(C=N4)CC5=CC=C(C=C5)C6=CC=CC=C6)N[C@@H](CC7=CC=CC=C7)CO [QS11] + NC(=O)Nc1cc(-c2cccc(F)c2)sc1C(=O)N[C@H]1CCCNC1 [AZD7762] (partner 0.2 µM)
Summary of the method: (§1)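 Relative viability divides the nuclei count in treated wells by that in vehicle wells. Lung cancer cell lines were seeded in 1536-well plates, dosed by pin tool the next day, and fixed and stained after 5 days in one step with final 0.05% Triton X-100, 1% formaldehyde and 1 ug/ml Hoechst. Dosing was a single drug or a fixed anchor-drug dose plus five library-drug doses (not always all listed) in √10 steps, and values are medians of duplicate plates imaged at 4×.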

QS11 + Dasatinib = compound: C1CC2=C(C1)C=C(C=C2)OC3=NC(=C4C(=N3)N(C=N4)CC5=CC=C(C=C5)C6=CC=CC=C6)N[C@@H](CC7=CC=CC=C7)CO [QS11] + Cc1nc(Nc2ncc(C(=O)Nc3c(C)cccc3Cl)s2)cc(N2CCN(CCO)CC2)n1 [Dasatinib] (partner 0.075 µM)
Summary of the method: as §1

Darinaparsin + Olaparib = compound: C[As](C)SC[C@H](NC(=O)CC[C@H](N)C(=O)O)C(=O)NCC(=O)O [Darinaparsin] + O=C(c1cc(Cc2n[nH]c(=O)c3ccccc23)ccc1F)N1CCN(C(=O)C2CC2)CC1 [Olaparib] (partner 8 µM)
Summary of the method: as §1

AZ628 + AZD7762 = compound: CC1=C(C=C(C=C1)NC(=O)C2=CC(=CC=C2)C(C)(C)C#N)NC3=CC4=C(C=C3)N=CN(C4=O)C [AZ628] + NC(=O)Nc1cc(-c2cccc(F)c2)sc1C(=O)N[C@H]1CCCNC1 [AZD7762] (partner 0.2 µM)
Summary of the method: as §1

Cell Line | relative viability (QS11 + AZD7762; first compound 0.08 µM) | relative viability (QS11 + AZD7762; first compound 0.253 µM) | relative viability (QS11 + AZD7762; first compound 0.8 µM) | relative viability (QS11 + AZD7762; first compound 2.53 µM) | relative viability (QS11 + AZD7762; first compound 8 µM) | relative viability (QS11 + Dasatinib; first compound 0.08 µM) | relative viability (QS11 + Dasatinib; first compound 0.253 µM) | relative viability (QS11 + Dasatinib; first compound 0.8 µM) | relative viability (QS11 + Dasatinib; first compound 2.53 µM) | relative viability (QS11 + Dasatinib; first compound 8 µM) | relative viability (Darinaparsin + Olaparib; first compound 0.08 µM) | relative viability (Darinaparsin + Olaparib; first compound 0.8 µM) | relative viability (Darinaparsin + Olaparib; first compound 2.53 µM) | relative viability (Darinaparsin + Olaparib; first compound 8 µM) | relative viability (AZ628 + AZD7762; first compound 0.08 µM) | relative viability (AZ628 + AZD7762; first compound 0.253 µM) | relative viability (AZ628 + AZD7762; first compound 0.8 µM) | relative viability (AZ628 + AZD7762; first compound 2.53 µM) | relative viability (AZ628 + AZD7762; first compound 8 µM)
LU99A | 0.326 | 0.348 | 0.398 | 0.362 | 0.239 | 0.463 | 0.587 | 0.685 | 0.684 | 0.681 | 0.275 | 0.252 | 0.125 | 0.246 | 0.436 | 0.363 | 0.415 | 0.33 | 0.22
HCC-44 | 1.11 | 0.995 | 0.65 | 1.02 | 1.02 | – | – | – | – | – | 1.06 | 0.993 | 0.942 | 1.03 | 1.01 | 0.945 | 1.08 | 1.04 | 1.24
EBC-1 | – | – | – | – | – | – | – | – | – | – | 0.811 | 0.731 | 0.603 | 0.511 | – | – | – | – | –
NCI-H647 | 0.441 | 0.302 | 0.592 | 0.385 | 0.565 | 0.164 | 0.219 | 0.216 | 0.184 | 0.205 | 0.681 | 0.601 | 0.382 | 0.604 | 0.485 | 0.417 | 0.456 | 0.488 | 0.397
NCI-H1734 | 0.579 | 0.595 | 0.71 | 0.465 | 0.529 | 0.449 | 0.509 | 0.504 | 0.481 | 0.597 | 0.73 | 0.561 | 0.627 | 0.641 | 0.504 | 0.56 | 0.561 | 0.473 | 0.373
NCI-H1993 | 0.793 | 0.88 | 0.927 | 0.771 | 0.615 | 0.558 | 0.508 | 0.618 | 0.684 | 0.528 | 1.06 | 1.01 | 1.1 | 1.08 | 0.855 | 0.546 | 0.53 | 0.556 | 0.571
NCI-H23 | 0.229 | 0.252 | 0.278 | 0.208 | 0.216 | 0.809 | 0.673 | 0.738 | 0.654 | 0.712 | 0.293 | 0.291 | 0.363 | 0.331 | 0.226 | 0.23 | 0.151 | 0.184 | 0.146
NCI-H1623 | – | – | – | – | – | 0.502 | 0.567 | 0.66 | 0.544 | 0.641 | – | – | – | – | – | – | – | – | –
NCI-H1355 | 0.729 | 0.607 | 0.666 | 0.614 | 0.759 | 0.702 | 0.526 | 0.673 | 0.817 | 0.794 | 0.78 | 0.708 | 0.676 | 0.746 | 0.798 | 0.754 | 0.737 | 0.638 | 0.541
NCI-H2170 | 0.87 | 0.942 | 0.722 | 0.871 | 1.02 | 0.621 | 0.482 | 0.582 | 0.794 | 0.968 | 0.722 | 0.662 | 0.614 | 0.543 | 0.882 | 0.793 | 0.832 | 1.02 | 0.743
NCI-H2405 | 0.731 | 0.747 | 0.789 | 1.13 | 1.22 | 0.196 | 0.2 | 0.206 | 0.276 | 0.325 | 0.992 | 0.865 | 0.841 | 0.914 | 0.54 | 0.387 | 0.498 | 0.419 | 0.458
NCI-H2023 | – | – | – | – | – | 0.634 | 0.475 | 0.555 | 0.572 | 0.618 | 0.721 | 0.407 | 0.416 | 0.434 | – | – | – | – | –
NCI-H1703 | – | 0.12 | 0.121 | 0.121 | 0.168 | – | – | – | – | – | 0.5 | 0.587 | 0.389 | 0.516 | 0.118 | 0.124 | 0.134 | 0.139 | 0.0724
NCI-H1563 | – | – | – | – | – | 0.448 | 0.417 | 0.44 | 0.409 | 0.426 | – | – | – | – | – | – | – | – | –
NCI-H520 | – | – | – | – | – | 0.186 | 0.254 | 0.191 | 0.208 | 0.167 | 0.378 | 0.321 | 0.354 | 0.313 | – | – | – | – | –
NCI-H661 | – | – | – | – | – | 0.794 | 0.804 | 0.891 | 0.798 | 0.711 | 0.799 | 0.787 | 0.699 | 0.815 | – | – | – | – | –
Calu-6 | – | – | – | – | – | – | – | – | – | – | 0.592 | 0.59 | 0.594 | 0.556 | – | – | – | – | –
COR-L23 | – | – | – | – | – | 0.505 | 0.59 | 0.552 | 0.358 | 0.355 | 0.331 | 0.323 | 0.316 | 0.358 | – | – | – | – | –
SK-MES-1 | – | – | – | – | – | 0.374 | 0.307 | 0.425 | 0.326 | 0.297 | 0.888 | 0.66 | 0.662 | 0.474 | – | – | – | – | –
NCI-H1299 | – | – | – | – | – | – | – | – | – | – | 1.02 | 0.928 | 0.98 | 0.981 | – | – | – | – | –
COR-L 105 | – | – | – | – | – | 0.281 | 0.267 | 0.334 | 0.423 | 0.331 | 0.747 | 0.695 | 0.758 | 0.69 | – | – | – | – | –
NCI-H1650 | – | – | – | – | – | 0.288 | 0.27 | 0.329 | 0.308 | 0.284 | 0.956 | 0.718 | 0.95 | 0.801 | – | – | – | – | –
SK-LU-1 | – | – | – | – | – | 0.175 | 0.158 | 0.172 | 0.167 | 0.169 | 0.613 | 0.431 | 0.407 | 0.562 | – | – | – | – | –
NCI-H1648 | 0.727 | 0.741 | 0.747 | 0.865 | 0.544 | – | – | – | – | – | – | 0.765 | – | 1.05 | 0.871 | 0.579 | 0.524 | 0.494 | 0.587
UMC-11 | – | – | – | – | – | 0.473 | 0.5 | 0.494 | 0.583 | 0.681 | 0.494 | 0.347 | 0.536 | 0.346 | – | – | – | – | –
SW 1573 | – | – | – | – | – | 0.537 | 0.635 | 0.545 | 0.393 | 0.329 | 0.592 | 0.493 | 0.42 | 0.431 | – | – | – | – | –
IA-LM | – | – | – | – | – | – | – | – | – | – | 0.93 | 0.936 | 0.982 | 0.884 | – | – | – | – | –
